Measurements taken from publication PMC3855985, “Simultaneous Determination of Volatile Constituents from Acorus tatarinowii Schott in Rat Plasma by Gas Chromatography-Mass Spectrometry with Selective Ion Monitoring and Application in Pharmacokinetic Study” (Journal of Analytical Methods in Chemistry, 2013).

Experiment: Pharmacokinetic study in rats after single oral dose of volatile oil of Acorus tatarinowii Schott (GC-MS/SIM of plasma)
Conditions: for CL / Vd / AUC(0~t) / AUC(0~∞) / C max / T1/2 α / T 1/2β / T max: rats (n = 6); for CL / Vd / Compartment model of the plasma profile / AUC(0~t) / AUC(0~∞) / C max / T1/2 α / T 1/2β / T max: single oral dose 0.2 g/kg volatile oil of Acorus tatarinowii Schott; for Compartment model of the plasma profile: rats
Procedure: GC-MS analyses were performed with a Shimadzu GC-MS QP2010 (Kyoto, Japan). Chromatographic separation was achieved on a Restek Rxi-5MS capillary column (30 m × 0.32 mm I.D., 0.25 μm film thickness, Shimadzu, Japan) using nitrogen as carrier gas at 2 mL/min in a constant flow rate mode. […] The temperatures of injector, interface, and ion source were 250, 280, and 230°C, respectively. Detection was operated by selected ionmonitoring (SIM) mode (70 eV, electron impact mode).
In the SIM mode, the peaks of α-asarone, β-asarone, methyl eugenol, and IS in plasma were identified by matching the retention time and the abundant ions of m/z 178 for methyl eugenol, m/z 208 for α-asarone, β-asarone, and m/z 144 for IS. The injection volume was 1.0 μL. Data were collected using the GC-MS solution (Kyoto, Japan).
Six healthy male Sprague-Dawley rats, weighing 250–280 g, were supplied by the Guangdong Laboratory Animals Monitoring Institute (Guangdong, China). The rats were housed in a standard animal holding room with normal access to food and water and 12 h light cycle. The animals were fasted overnight prior to dosing, with water allowance ad libitum. All animal experiments were carried out according to the Guidelines for the Care and Use of Laboratory Animals and were approved by the Animal Experimentation Ethics Committee.
In a 1.5 mL Eppendorf tube, 100 μL of plasma was spiked with 10 μL of 2.0 μg/mL IS solution. An aliquot of 40 μL 10% (V : V) trichloracetic acid water solution and 600 μL acetonitrile was used to remove the proteins in the plasma through vortexed for 2 min followed by the centrifugation of 10 min at 8000 rpm. The supernatant was collected in a clean tube for next use, while the residue was extracted by 300 μL acetic ether for three times. The acetic ether layer and the above supernatant were collected together and evaporated to dryness under a stream of nitrogen. The residue was dissolved in 100 μL of acetone for further GC-MS analysis.
Volatile oil of Acorus tatarinowii Schott was administered orally to the rat in a single dose of 0.2 g/kg. Blood samples were collected in heparinized tube at 0, 5, 10, 20, 30, 60, 90, 120, 180, 300, 480, 720, 960, and 1200 min after dose. All the samples were extracted and analyzed under the proposed condition.
The Microsoft Excel Program Drug and Statistics 2.0 (T.C.M. Shanghai, China) was employed to process and calculate the pharmacokinetic parameters. The parameters of the area under curve (AUC), the maximum plasma concentration (C max) and the corresponding time (t max), the half-life of absorption (t 1/2), and so forth were used to decrypt the pharmacokinetic properties of α-asarone, β-asarone, and methyl eugenol. Statistical analysis of the biological data was performed by the Student's t-test. All results were expressed as arithmetic mean ± standard deviation (SD).

[1] = male, Sprague-Dawley, rat, plasma, po, 0.2 g/kg

C=CCc1ccc(OC)c(OC)c1 [Methyl Eugenol, Methyl eugenol]
AUC(0-inf) [1]: 41.5 ng·h/mL
AUC(0-t) [1]: 35.5 ng·h/mL
Cmax [1]: 21 ± 1 ng/mL
Tmax [1]: 10 min
half-life [1]: 67.7 ± 3.32 min
CL (plasma): 0.40 ± 0.04 mL/min/kg
Vd (plasma): 39.35 ± 4.08 L/kg
Compartment model of the plasma profile: one-compartment open models

C/C=C/c1cc(OC)c(OC)cc1OC [α-Asarone]
AUC(0~t) (plasma): 47.51 ± 28.49 mg·min/L
AUC(0~∞) (plasma): 56.67 ± 35.91 mg·min/L
C max (plasma): 530 ± 240 ng/mL
CL (plasma): 0.60 ± 0.44 mL/min/kg
T1/2 α (plasma): 58.92 ± 20.80 min
T 1/2β (plasma): 69.28 ± 6.12 min
T max (plasma): 11.25 ± 6.29 min
Vd (plasma): 22.93 ± 16.11 L/kg
Compartment model of the plasma profile: two-compartment open model

C/C=C\c1cc(OC)c(OC)cc1OC [β-Asarone, β-asarone]
AUC(0~t) (plasma): 368.43 ± 40.05 mg·min/L
AUC(0~∞) (plasma): 407.52 ± 55.78 mg·min/L
C max (plasma): 2470 ± 580 ng/mL
CL (plasma): 0.38 ± 0.05 mL/min/kg
T1/2 α (plasma): 54.39 ± 29.46 min
T 1/2β (plasma): 69.30 ± 0.21 min
T max (plasma): 13.75 ± 11.09 min
Vd (plasma): 149.87 ± 90.78 L/kg
Compartment model of the plasma profile: two-compartment open model
